Measurements from US20250296971A1, “GASTRIC INHIBITORY PEPTIDE RECEPTOR LIGANDS” (priority 2021, published 2025).
*1 amine or outer side, *2 acyl side, *3 side chain or, on linkers, in order; H or OH if unused. Where a SMILES comes first, the peptide text is derived from it. Bridges are numbered along the chain shown (N, C = ends). [ ]: non-standard residue; d: D form. The star is where a group is joined. X3 = O=C(O)CN1CCN(CC(=O)O)CCN(CC(=O)NCCCOCCOCCOCCCN*)CCN(CC(=O)O)CC1; DOTA = O=C(O)CN1CCN(CC(=O)O)CCN(CC(=O)*)CCN(CC(=O)O)CC1; Trp(5-Cl) = N[C@@H](Cc1c[nH]c2ccc(Cl)cc12)C(=O)O; Pyridine(2,6-diCH2) = c1cc(C[*:1])nc(C[*:2])c1; Trp(7-aza) = N[C@@H](Cc1c[nH]c2ncccc12)C(=O)O; mXylylene = c1cc(C[*:1])cc(C[*:2])c1; oXylylene = c1ccc(C[*:2])c(C[*:1])c1; X7 = c1cc(CSCCN[*:2])cc(C[*:1])c1; Hyp = O=C(O)[C@@H]1C[C@@H](O)CN1; Suc = O=C(CCC(=O)[*:2])[*:1]; hLeu = CC(C)CC[C@H](N)C(=O)O; Api = NC1(C(=O)O)CCNCC1; Thp = NC1(C(=O)O)CCOCC1; Aib = CC(C)(N)C(=O)O

Molecular target: T1, GIPR (CHO-K1-hGIPR cells) (Homo sapiens, UniProt P48546)
T1 construct: host or cells: CHO-K1
T1 sequence (P48546 22-466): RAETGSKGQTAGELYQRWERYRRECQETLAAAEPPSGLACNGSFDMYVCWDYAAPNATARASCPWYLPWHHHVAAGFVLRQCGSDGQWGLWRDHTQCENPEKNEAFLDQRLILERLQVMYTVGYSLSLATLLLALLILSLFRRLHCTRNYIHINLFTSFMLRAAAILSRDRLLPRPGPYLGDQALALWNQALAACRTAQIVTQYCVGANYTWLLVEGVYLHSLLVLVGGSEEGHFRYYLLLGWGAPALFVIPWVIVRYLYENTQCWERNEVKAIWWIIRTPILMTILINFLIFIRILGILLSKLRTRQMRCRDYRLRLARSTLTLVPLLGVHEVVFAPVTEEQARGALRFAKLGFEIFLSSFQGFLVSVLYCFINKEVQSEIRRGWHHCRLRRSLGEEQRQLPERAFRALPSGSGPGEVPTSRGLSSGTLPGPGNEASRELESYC
Assay: FACS binding assay
Conditions: competition with 20 nM GIP-057, 4° C. for 1 hour, read-out: pIC50 Category (converted)
Method in brief: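 CHO-K1 cells expressing human GIPR, washed in PBS/1% FCS, then stained with 1 μg/mL APC-streptavidin for 30 min on ice.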

IC50 | SMILES
10 to 79.4 nM | CC(=O)N[C@@H](CC(=O)O)C(=O)N[C@@H](Cc1c[nH]c2ccccc12)C(=O)N[C@@H](Cc1c[nH]c2ccc(Cl)cc12)C(=O)N1C[C@H](O)C[C@H]1C(=O)N[C@@H](CCC(=O)O)C(=O)N[C@H](CC(C)C)C(=O)N[C@H]1CSCc2cccc(n2)CSC[C@@H](C(N)=O)NC(=O)[C@H](Cc2ccccc2)NC(=O)[C@H](CC(C)C)NC(=O)C2(CCN(C(=O)CN3CCN(CC(=O)O)CCN(CC(=O)O)CCN(CC(=O)O)CC3)CC2)NC1=O [GIP-393, Ac-Asp-Trp-5Clw-Hyp-Glu-leu-[Cys(2Lut)-Apc(DOTA)-Leu-Phe-Cys]-NH2] (Ac-DW[Trp(5-Cl)][Hyp]E[dL]C[Api](DOTA)LFC-NH2; linker 7-11 via Pyridine(2,6-diCH2))
> 1000 nM | CC[C@H](C)[C@@H]1NC(=O)C(C)(C)NC(=O)[C@H](CCC(=O)O)NC(=O)[C@@H](NC(=O)[C@H](CC(C)C)NC(=O)[C@H](Cc2c[nH]c3ccccc23)NC(=O)[C@H](Cc2c[nH]c3ccc(Cl)cc23)NC(=O)[C@@H]2CCCN2C(=O)[C@H](CC(=O)O)NC(=O)[C@@H](CC(C)C)NC(=O)CCC(=O)NCCCOCCOCCOCCCNC(=O)CN2CCN(CC(=O)O)CCN(CC(=O)O)CCN(CC(=O)O)CC2)CSCc2cccc(c2)CSCCNC1=O [GIP-305, DOTA-Ttds-leu-Asp-Pro-5Clw-Trp-Leu-[Cys(3MeBn)-Glu-Aib-Ile-AET]] ({X3-Suc}-[dL]DP[Trp(5-Cl)]WLCE[Aib]I; linker 7-C via X7)

The remaining lines, values behind:

SMILES | IC50
CC[C@H](C)[C@@H]1NC(=O)[C@H](CC(C)C)NC(=O)C2(CCOCC2)NC(=O)[C@@H](NC(=O)[C@@H](CC(C)C)NC(=O)[C@H](Cc2ccccc2)NC(=O)[C@@H]2C[C@@H](O)CN2C(=O)[C@H](Cc2c[nH]c3ccc(Cl)cc23)NC(=O)[C@H](Cc2c[nH]c3ccccc23)NC(=O)[C@H](CC(=O)O)NC(C)=O)CSCc2cccc(n2)CSC[C@@H](C(N)=O)NC1=O [GIP-396, Ac-Asp-Trp-5Clw-Hyp-Phe-leu-[Cys(2Lut)-Thp-Leu-Ile-Cys]-NH2] (Ac-DW[Trp(5-Cl)][Hyp]F[dL]C[Thp]LIC-NH2; linker 7-11 via Pyridine(2,6-diCH2)) | 10 to 79.4 nM
CC[C@H](C)[C@@H]1NC(=O)[C@@H](CC(C)C)NC(=O)[C@H](C)NC(=O)[C@@H](NC(=O)[C@H](CC(C)C)NC(=O)[C@H](CCC(=O)O)NC(=O)[C@@H]2CCCN2C(=O)[C@H](Cc2c[nH]c3ccccc23)NC(=O)[C@H](Cc2c[nH]c3ccccc23)NC(=O)[C@H](CC(=O)O)NC(=O)[C@H](Cc2ccc(O)cc2)NC(=O)[C@@H](N)CCSC)CSCc2ccccc2CSC[C@@H](C(N)=O)NC1=O [GIP-313] (H-MYDWWPELCA[dL]IC-NH2; linker 9-13 via oXylylene) | 100 to 794 nM
CC[C@H](C)[C@@H]1NC(=O)[C@H](CCC(C)C)NC(=O)C(C)(C)NC(=O)[C@@H](NC(=O)[C@H](CC(C)C)NC(=O)[C@H](CCC(=O)O)NC(=O)[C@@H]2CCCN2C(=O)[C@H](Cc2c[nH]c3ccccc23)NC(=O)[C@H](Cc2c[nH]c3ccccc23)NC(=O)CCC(=O)O)CSCc2cccc(c2)CSC[C@@H](C(N)=O)NC1=O [GIP-260, HO-Succinyl-Trp-Trp-Pro-Glu-Leu-[Cys(3MeBn)-Aib-Hle-Ile-Cys]-NH2] (Suc-WWPELC[Aib][hLeu]IC-NH2; linker 6-10 via mXylylene) | 10 to 79.4 nM
CC[C@H](C)[C@@H]1NC(=O)[C@H](CC(C)C)NC(=O)C2(CCOCC2)NC(=O)[C@@H](NC(=O)[C@@H](CC(C)C)NC(=O)[C@H](CCC(=O)O)NC(=O)[C@@H]2C[C@@H](O)CN2C(=O)[C@H](Cc2c[nH]c3ncccc23)NC(=O)[C@H](Cc2c[nH]c3ccccc23)NC(=O)[C@H](CC(=O)O)NC(C)=O)CSCc2cccc(n2)CSC[C@@H](C(N)=O)NC1=O [GIP-267, Ac-Asp-Trp-7Nw-Hyp-Glu-leu-[Cys(2Lut)-Thp-Leu-Ile-Cys]-NH2] (Ac-DW[Trp(7-aza)][Hyp]E[dL]C[Thp]LIC-NH2; linker 7-11 via Pyridine(2,6-diCH2)) | 10 to 79.4 nM
